Columns and labels:
Human CARM1 (PRMT4) = molecular target: T1, Human CARM1 (PRMT4) (Homo sapiens, UniProt Q86X55); test: CARM1 biochemical assay (3H-SAM Flashplate, peptide substrate)
T1 construct: Flag-CARM1-His was eluted with 200 ug/ml FLAG peptide in buffer A; made in house; host or cells: HEK 293F cells (BacMam virus, pFastBacMam)
T1 sequence (Q86X55 with tags, fused parts or gaps isoform Q86X55-1): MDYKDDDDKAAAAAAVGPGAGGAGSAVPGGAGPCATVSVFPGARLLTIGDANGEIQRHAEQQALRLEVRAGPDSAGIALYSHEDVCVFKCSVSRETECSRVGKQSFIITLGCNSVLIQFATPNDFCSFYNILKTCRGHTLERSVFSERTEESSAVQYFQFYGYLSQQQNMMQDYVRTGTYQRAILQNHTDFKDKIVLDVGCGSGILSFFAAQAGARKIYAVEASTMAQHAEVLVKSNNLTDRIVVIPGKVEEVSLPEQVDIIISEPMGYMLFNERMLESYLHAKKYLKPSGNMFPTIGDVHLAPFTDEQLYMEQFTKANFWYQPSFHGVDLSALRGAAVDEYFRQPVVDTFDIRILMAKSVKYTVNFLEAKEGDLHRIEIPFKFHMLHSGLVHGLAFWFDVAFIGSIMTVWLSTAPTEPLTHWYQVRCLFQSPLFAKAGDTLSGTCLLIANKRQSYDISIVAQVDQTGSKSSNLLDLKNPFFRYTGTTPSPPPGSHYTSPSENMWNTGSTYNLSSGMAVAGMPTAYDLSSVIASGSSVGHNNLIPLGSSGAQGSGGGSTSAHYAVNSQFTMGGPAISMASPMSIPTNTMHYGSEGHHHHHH
Procedure, shortened: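 Methylation of a biotin-tagged H3 residues 16-30 peptide by recombinant CARM1 tracked via 3H-SAM incorporation, read as scintillation counts after streptavidin Flashplate capture. Compound and enzyme sat 30 min at room temperature first; unlabelled SAM at 300 uM final stopped the reaction. IC50 from Hill fits of % inhibition normalised to SAH and DMSO controls.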

[1] = molecular target: T2, Full-length human PRMT1 isoform 1 (Homo sapiens, UniProt Q99873); test: PRMT1 biochemical assay (3H-SAM Flashplate, peptide substrate)
T2 construct: GST-tagged PRMT1; made in house; host or cells: High Five insect cells (baculovirus, pFastBacI)
Procedure, shortened: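 GST-tagged full-length PRMT1 from baculovirus-infected cells, preincubated 30 min at room temperature with compound in 20 mM Bicine pH 7.6, TCEP, BSG, Tween 20. Reaction started with 3H-SAM plus biotinylated peptide, stopped with 300 uM unlabelled SAM. Streptavidin Flashplate capture and scintillation counting; % inhibition curve-fitted for IC50.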

T2 sequence (Q99873 with tags, fused parts or gaps): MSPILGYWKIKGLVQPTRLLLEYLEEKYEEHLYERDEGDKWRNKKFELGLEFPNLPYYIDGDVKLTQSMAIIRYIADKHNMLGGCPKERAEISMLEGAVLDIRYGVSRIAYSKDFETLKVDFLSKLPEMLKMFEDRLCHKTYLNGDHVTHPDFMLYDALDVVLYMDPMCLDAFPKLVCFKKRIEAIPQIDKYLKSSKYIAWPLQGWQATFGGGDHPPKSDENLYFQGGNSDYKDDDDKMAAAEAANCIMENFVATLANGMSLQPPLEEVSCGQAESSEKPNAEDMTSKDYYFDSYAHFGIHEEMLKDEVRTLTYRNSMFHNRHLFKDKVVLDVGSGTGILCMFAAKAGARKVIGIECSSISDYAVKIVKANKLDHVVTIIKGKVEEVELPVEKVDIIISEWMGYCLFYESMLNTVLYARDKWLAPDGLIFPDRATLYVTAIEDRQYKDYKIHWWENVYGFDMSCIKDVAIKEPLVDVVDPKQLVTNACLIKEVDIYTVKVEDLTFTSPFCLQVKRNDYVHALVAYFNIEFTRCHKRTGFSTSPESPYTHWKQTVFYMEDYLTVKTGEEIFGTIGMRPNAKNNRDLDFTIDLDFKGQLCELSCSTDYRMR

CN(CCN)Cc1cn[nH]c1-c1ccc(F)cc1 [Compound 1]
IC50 (Human CARM1 (PRMT4)): 1.01 to 3 µM

CNCCN(C)Cc1c[nH]nc1-c1ccc(F)cc1 [Compound 2, N^1-((3-(4-fluorophenyl)-1H-pyrazol-4-yl)methyl)-N^1,N^2-dimethylethane-1,2-diamine]
IC50 [1]: < 0.1 µM

CN(CCN)Cc1cn(C)nc1-c1ccc(F)cc1 [Compound 3]
IC50 [1]: < 0.1 µM

CN(CCN)Cc1cnn(C)c1-c1ccc(F)cc1 [Compound 4]
IC50 [1]: 0.101 to 1 µM
IC50 (Human CARM1 (PRMT4)): 0.101 to 1 µM

CCN(CCNC)Cc1c[nH]nc1-c1ccc(F)cc1 [Compound 9]
IC50 (Human CARM1 (PRMT4)): 1.01 to 3 µM

CNCCN(C)Cc1cnn(C)c1-c1ccc(F)cc1 [Compound 10]
IC50 (Human CARM1 (PRMT4)): 1.01 to 3 µM

CNCCN(C)Cc1cn(CC2CCOCC2)nc1-c1ccc(F)cc1 [Compound 11]
IC50 (Human CARM1 (PRMT4)): > 10 µM

CNCCN(C)Cc1cnn(CC2CCOCC2)c1-c1ccc(F)cc1 [Compound 12]
IC50 (Human CARM1 (PRMT4)): 3.01 to 10 µM

CNCCN(C)Cc1c[nH]nc1-c1cccc(N)c1 [Compound 32]
IC50 (Human CARM1 (PRMT4)): 1.01 to 3 µM

CNCCN(C)Cc1c[nH]nc1-c1ccc(CC#N)cc1 [Compound 34]
IC50 (Human CARM1 (PRMT4)): 1.01 to 3 µM

CNCCN(C)Cc1c[nH]nc1-c1ccccc1O [Compound 35]
IC50 (Human CARM1 (PRMT4)): > 10 µM

CNCCN(C)Cc1c[nH]nc1-c1ccccc1Oc1ccccc1 [Compound 36]
IC50 (Human CARM1 (PRMT4)): > 10 µM

CNCCN(C)Cc1c[nH]nc1-c1cccc(OC(F)(F)F)c1 [Compound 39]
IC50 (Human CARM1 (PRMT4)): 1.01 to 3 µM

CNCCN(C)Cc1c[nH]nc1-c1ccccc1NS(C)(=O)=O [Compound 41]
IC50 (Human CARM1 (PRMT4)): > 10 µM

CNCCN(C)Cc1c[nH]nc1-c1cccc(NC(C)=O)c1 [Compound 42]
IC50 (Human CARM1 (PRMT4)): 1.01 to 3 µM

CNCCN(C)Cc1c[nH]nc1-c1cccc(C(C)=O)c1 [Compound 44]
IC50 (Human CARM1 (PRMT4)): 1.01 to 3 µM

CNCCN(C)Cc1c[nH]nc1-c1ccc(C(=O)c2ccccc2)cc1 [Compound 45]
IC50 [1]: < 0.1 µM
IC50 (Human CARM1 (PRMT4)): < 0.1 µM

CNCCN(C)Cc1c[nH]nc1-c1ccccc1-c1ccccc1 [Compound 46]
IC50 [1]: 1.01 to 3 µM
IC50 (Human CARM1 (PRMT4)): > 10 µM

CNCCN(C)Cc1c[nH]nc1-c1ccc(-c2ccccc2)cc1 [Compound 47]
IC50 (Human CARM1 (PRMT4)): < 0.1 µM

CNCCN(C)Cc1c[nH]nc1-c1ccccc1F [Compound 48]
IC50 (Human CARM1 (PRMT4)): 3.01 to 10 µM

CNCCN(C)Cc1c[nH]nc1-c1ccc(F)cc1F [Compound 49]
IC50 [1]: 0.101 to 1 µM
IC50 (Human CARM1 (PRMT4)): 3.01 to 10 µM

CNCCN(C)Cc1c[nH]nc1-c1cc(F)ccc1F [Compound 50]
IC50 [1]: 0.101 to 1 µM
IC50 (Human CARM1 (PRMT4)): 3.01 to 10 µM

CNCCN(C)Cc1c[nH]nc1-c1ccc(F)c(F)c1 [Compound 51]
IC50 [1]: < 0.1 µM
IC50 (Human CARM1 (PRMT4)): 0.101 to 1 µM

CNCCN(C)Cc1c[nH]nc1-c1ccc(OC)c(F)c1 [Compound 52]
IC50 [1]: < 0.1 µM
IC50 (Human CARM1 (PRMT4)): 1.01 to 3 µM

CNCCN(C)Cc1c[nH]nc1-c1cc(Cl)ccc1OC [Compound 53]
IC50 [1]: 3.01 to 10 µM
IC50 (Human CARM1 (PRMT4)): > 10 µM

CNCCN(C)Cc1c[nH]nc1-c1cccc(OC)c1OC [Compound 54]
IC50 [1]: 0.101 to 1 µM
IC50 (Human CARM1 (PRMT4)): > 10 µM

CNCCN(C)Cc1c[nH]nc1-c1ccc(OC)cc1OC [Compound 55]
IC50 [1]: 0.101 to 1 µM
IC50 (Human CARM1 (PRMT4)): 3.01 to 10 µM

CNCCN(C)Cc1c[nH]nc1-c1c(OC)cccc1OC [Compound 56]
IC50 [1]: 3.01 to 10 µM
IC50 (Human CARM1 (PRMT4)): > 10 µM

CNCCN(C)Cc1c[nH]nc1-c1cccc2ccccc12 [Compound 57]
IC50 [1]: < 0.1 µM
IC50 (Human CARM1 (PRMT4)): 1.01 to 3 µM

CNCCN(C)Cc1c[nH]nc1-c1ccc2ccccc2c1 [Compound 58]
IC50 [1]: < 0.1 µM
IC50 (Human CARM1 (PRMT4)): 0.101 to 1 µM

CNCCN(C)Cc1cn(CCC(O)CO)nc1-c1ccc(F)cc1 (stereo not shown) [Compound 59]
IC50 [1]: 3.01 to 10 µM
IC50 (Human CARM1 (PRMT4)): 3.01 to 10 µM

CCNCCN(C)Cc1c[nH]nc1-c1ccc(F)cc1 [Compound 60]
IC50 [1]: 0.101 to 1 µM
IC50 (Human CARM1 (PRMT4)): > 10 µM

COCCn1cc(CN(C)CCN(C)C)c(-c2ccc(F)cc2)n1 [Compound 61]
IC50 [1]: > 10 µM
IC50 (Human CARM1 (PRMT4)): > 10 µM
